The values that follow come from patent US10130633B2, “Compounds” (BAYER PHARMA AKTIENGESELLSCHAFT, priority 2013, dated 2018).

Where “and” joins values, the source holds several entries; their conditions need not be identical. Identical values can stand only once.

Data set [1] concerns constitutive active colorectal cancer cell (CRC) Wnt pathway. The data set is described as follows: HCT116 TOPFlash cellular reporter assay (Super TopFlash luciferase), constitutive active Wnt pathway. It is filed as cell-based. As to conditions: might be a result of the low solubility. On the procedure:
In order to discover and characterize small molecules which inhibit the constitutive active colorectal cancer cell (CRC) Wnt pathway, a cellular reporter assay was employed. […] Stable transfectants were generated by cotransfection with pcDNA3 and selection of stable transfected cells with 1 mg/ml G418.
A general note: A reporter such as luciferase makes a cellular process visible.

A short description of data set [2]: Solubility in buffer / aqueous media. The data set is classed as physicochemical. As to conditions: pH 6.5, aqueous buffer; buffer at pH6.5. An excerpt:
Some of the compounds of general formula (I) show low solubility in aqueous media and organic solvents. This can affect the possibility to assess the activity of such compounds with the described assays. […] Therefore, the high IC50 value of the compound might be a result of the low solubility.

Regarding `COc1ccc(C(=O)Nc2nnc(-c3ccccc3)s2)cc1NC(=O)CN1CCOCC1` [4-methoxy-3-[(morpholin-4-ylacetyl)amino]-N-(5-phenyl-1,3,4-thiadiazol-2-yl)benzamide], in data set [1], the “IC50 value in the HCT116 TOPFlash assay (in words)” value is “higher than expected”. For the same compound, the solubility (as a rule, the dissolved amount per volume that the medium holds) in data set [2] is < 0.1 µg/mL and < 0.22 µM.
